Reference: patent publication US7312358B2, “Pharmaceutically active sulfanilide derivatives” (Laboratoires Serono SA, priority 2000, dated 2007)

system: not given; experiment: not given; settings: not given

| Molecule | melting point |
| --- | --- |
| CCOc1ccc(S(=O)(=O)N(CC(=O)N/N=C2/C(=O)Nc3ccc(S(=O)(=O)O)cc32)c2ccc(C)cc2)cc1 [Example 1, 3-[({[(4-ethoxyphenyl)sulfonyl]-4-methylanilino}acetyl)hydrazono]-2-oxo-2,3-dihydro-H-indole-5-sulfonic Acid] | 318 to 319 °C (dec.) |
| CCOc1ccc(S(=O)(=O)N(CC(=O)N/N=C2/C(=O)Nc3ccccc32)c2ccccc2)cc1 [Example 2, 4-ethoxy-N-{2-oxo-2-[2-(2-oxo-1,2-dihydro-3H-indol-3-ylidene)hydrazino]-ethyl}-N-phenylbenzenesulfonamide] | 135.5 to 136.5 °C |
| CCOc1ccc(S(=O)(=O)N(CC(=O)N/N=C2/C(=O)Nc3ccc([N+](=O)[O-])cc32)c2ccccc2)cc1 [Example 3, 4-ethoxy-N-{2-[2-(5-nitro-2-oxo-1,2-dihydro-3H-indol-3-ylidene)hydrazino]-2-oxoethyl}-N-phenylbenzenesulfonamide] | 252 to 253 °C |
| CCOc1ccc(S(=O)(=O)N(CC(=O)N/N=C2/C(=O)Nc3ccc(I)cc32)c2ccccc2)cc1 [Example 4, 4-ethoxy-N-{2-[2-(5-iodo-2-oxo-1,2-dihydro-3H-indol-3-ylidene)hydrazino]-2-oxoethyl}-N-phenylbenzenesulfonamide] | 233 to 234 °C |
| Cc1ccc(N(CC(=O)N/N=C2/C(=O)Nc3ccccc32)S(=O)(=O)c2cccc3ccccc23)cc1 [Example 6, N-(4-methylphenyl)-N-{2-oxo-2-[2-(2-oxo-1,2-dihydro-3H-indol-3-ylidene)hydrazino]ethyl}-1-naphthalenesulfonamide] | 138 to 139 °C |
| Cc1ccc(N(CC(=O)N/N=C2/C(=O)Nc3ccccc32)S(=O)(=O)c2ccc(Cl)cc2)cc1 [Example 8, 4-chloro-N-(4-methylphenyl)-N-{2-oxo-2-[2-(2-oxo-1,2-dihydro-3H-indol-3-ylidene)hydrazino]ethyl}benzenesulfonamide] | 234 to 235 °C |
| COc1ccc(S(=O)(=O)N(CC(=O)N/N=C2/C(=O)Nc3ccccc32)c2ccc(C)cc2)cc1 [Example 9, 4-methoxy-N-(4-methylphenyl)-N-{2-oxo-2-[2-(2-oxo-1,2-dihydro-3H-indol-3-ylidene)hydrazino]ethyl}benzenesulfonamide] | 134 to 135 °C |
| Cc1ccc(N(CC(=O)N/N=C2/C(=O)Nc3ccccc32)S(=O)(=O)c2ccc(C)cc2)cc1 [Example 10, 4-methyl-N-(4-methylphenyl)-N-{2-oxo-2-[2-(2-oxo-1,2-dihydro-3H-indol-3-ylidene)hydrazino]ethyl}benzenesulfonamide] | 243 to 244 °C |
| CCOc1ccc(S(=O)(=O)N(CC(=O)N/N=C\c2ccccc2F)c2ccc(C)cc2)cc1 [Example 12, 4-ethoxy-N-{2-[2-(2-fluorobenzylidene)hydrazino]-2-oxoethyl}-N-(4-methylphenyl)benzenesulfonamide] | 183 to 184 °C |
| Cc1ccc(N(CC(=O)N/N=C2/C(=O)Nc3ccccc32)S(=O)(=O)c2ccc(-c3ccccc3)cc2)cc1 [Example 13, N-(4-methylphenyl)-N-{2-oxo-2-[2-(2-oxo-1.2-dihydro-3H-indol-3-ylidene)hydrazino]ethyl}[1,1′-biphenyl]-4-sulfonamide] | 246 to 247 °C |
| Cc1ccc(N(CC(=O)N/N=C2/C(=O)Nc3ccccc32)S(=O)(=O)c2ccc(Oc3ccccc3)cc2)cc1 [Example 14, N-(4-methylphenyl)-N-{2-oxo-2-[2-(2-oxo-1,2-dihydro-3H-indol-3-ylidene)hydrazino]ethyl}-4-phenoxybenzenesulfonamide] | 245 to 246 °C |
| CCOc1ccc(S(=O)(=O)N(CC(=O)N/N=C\c2ccc(N(CC)CC)cc2O)c2ccc(C)cc2)cc1 [Example 16, N-(2-{2-[4-(diethylamino)-2-hydroxybenzylidene]hydrazino}-2-oxoethyl)-4-ethoxy-N-(4-methylphenyl)benzenesulfonamide] | 227 to 228 °C |
| COc1ccc(-c2ccc(S(=O)(=O)N(CC(=O)N/N=C3\C(=O)Nc4ccccc43)c3ccc(C)cc3)cc2)cc1 [Example 19, 4′-methoxy-N-(4-methylphenyl)-N-{2-oxo-2-[2-(2-oxo-1,2-dihydro-3H-indol-3-ylidene)hydrazino]ethyl}[1,1′-biphenyl]-4-sulfonamide] | 235 to 236 °C |

target: T1, hOT receptor (Homo sapiens, UniProt P30559); experiment: In vitro competition binding assay on hOT receptor with scintillating proximity assay; settings: membranes from HEK293EBNA cells expressing hOT receptor; radiolabel [125I]-OVTA; SPA; read-out: Binding Affinity Human OT-R Ki
T1 construct: expressed in transfected cells; host or cells: HEK293EBNA cells (membranes)
T1 sequence (P30559 1-389): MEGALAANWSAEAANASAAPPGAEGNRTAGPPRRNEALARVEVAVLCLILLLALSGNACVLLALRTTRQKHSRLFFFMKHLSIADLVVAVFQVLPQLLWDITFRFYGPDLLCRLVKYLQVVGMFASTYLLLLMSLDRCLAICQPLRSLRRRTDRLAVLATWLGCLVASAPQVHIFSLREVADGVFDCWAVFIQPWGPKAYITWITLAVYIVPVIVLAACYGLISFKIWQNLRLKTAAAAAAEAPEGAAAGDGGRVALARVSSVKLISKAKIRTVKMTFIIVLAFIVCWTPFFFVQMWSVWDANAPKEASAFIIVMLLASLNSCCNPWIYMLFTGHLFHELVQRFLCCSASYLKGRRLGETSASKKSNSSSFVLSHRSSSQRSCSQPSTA
Procedure: a) In Vitro Competition Binding Assay on hOT Receptor with Scintillating Proximity Assay (Pharmaceutical Manufacturing International, 1992, p. 49-53 by Cook, N. D. et al)
This assays allows to determine the affinity of the test compounds for the OT receptor. Membranes from HEK293EBNA cells expressing the hOT receptor were resuspended in buffer containing 50 mM Tris-HCl, pH 7.4, 5 mM MgCl2 and 0.1% BSA (w/v). The membranes (2-4 μg) were mixed with 0.1 mg wheat-germ aglutinin (WGA) SPA bead (type A) and 0.2 nM of the radiolabel [^125I]-OVTA (OVTA being […] and is an analogue of OT for competition binding experiments). Non-specific binding was determined in the presence of 1 μM Oxytocin. The total assay volume was 100 μl. The plates (Corning (D NBS plate) were incubated at room temperature for 30 min and counted on a Mibrobeta plate counter. The tests compounds were used in concentrations of 30 μM, 10 μM, 1 μM, 300 nM, 100 nM, 10 nM, 1 nM, 100 pM, 10 pM. The competition binding data were analysed using the iterative, nonlinear, curve-fitting program, “Prism”.
The binding affinities to the oxytocin receptor of the sulfanilide derivatives claimed in the formula I were assessed using the above described in vitro biological assay. The values refer to the binding affinity (IC50; μM) of the example compounds according to formula I to the Oxytocin receptor. From the values shown in Table 1 it can be derived that said test compounds according to formula I do show a significant binding to the oxytocin receptor.

| Molecule | Ki [nM] |
| --- | --- |
| O=C(CN(c1ccc(Br)cc1)S(=O)(=O)c1ccccc1)Nc1cccc2cccnc12 [2-[Benzenesulfonyl-(4-bromo-phenyl)-amino]-N-quinolin-8-yl-acetamide] | 192 |
| CCOc1ccc(S(=O)(=O)N(CC(=O)N/N=C\c2ccccc2O)c2ccc(C)cc2)cc1 [Example 15, 4-ethoxy-N-{2-[2-(2-hydroxybenzylidene)hydrazino]-2-oxoethyl}-N-(4-methylphenyl)benzenesulfonamide] | 1.2 |
| O=C(CN(c1ccc(Cl)cc1)S(=O)(=O)c1cccs1)N/N=C1\C(=O)Nc2ccccc21 [Example 36, N-(4-chlorophenyl)-N-{2-oxo-2-[(2Z)-2-(2-oxo-1,2-dihydro-3H-indol-3-ylidene)hydrazino]ethyl}-2-thiophenesulfonamide] | 29.3 |
| CCOc1ccc(S(=O)(=O)N(CC(=O)N/N=C2\C(=O)Nc3ccncc32)c2ccc(Cl)cc2)cc1 [Example 50, N-(4-chlorophenyl)-4-ethoxy-N-{2-oxo-2-[(2Z)-2-(2-oxo-1,2-dihydro-3H-pyrrolo[3,2-c]pyridin-3-ylidene)hydrazino]ethyl}benzenesulfonamide] | 57.1 |
| CN(C)CCOc1ccc(S(=O)(=O)N(CC(=O)N/N=C2\C(=O)Nc3ccccc32)c2ccc(Cl)cc2)cc1 [Example 57, N-(4-chlorophenyl)-4-[2-(dimethylamino)ethoxy]-N-{2-oxo-2-[(2Z)-2-(2-oxo-1.2-dihydro-3H-indol-3-ylidene)hydrazino]ethyl}benzenesulfonamide] | 1.8 |
| Cc1ccc(N(CC(=O)N/N=C2\C(=O)Nc3ccccc32)S(=O)(=O)c2ccc(OCCCN(C)C)cc2)cc1 [Example 59, 4-[3-(Dimethylamino)propoxy]-N-(4-methylphenyl)-N-{2-oxo-2-[(2Z)-2-(2-oxo-1,2-dihydro-3H-indol-3-ylidene)hydrazino]ethyl}benzenesulfonamide] | 0.3 |
| O=C(CN(c1ccc(Cl)cc1)S(=O)(=O)c1ccc(OCc2cccs2)cc1)N/N=C1\C(=O)Nc2ccccc21 [Example 60, N-(4-chlorophenyl)-N-{2-oxo-2-[(2Z)-2-(2-oxo-1,2-dihydro-3H-indol-3-ylidene)hydrazino]ethyl}-4-(2-thienylmethoxy)benzenesulfonamide] | 53.3 |
| CN(C)CCCOc1ccc(S(=O)(=O)N(CC(=O)N/N=C2\C(=O)Nc3ccncc32)c2ccc(Cl)cc2)cc1 [Example 68, N-(4-chlorophenyl)-4-[3-(dimethylamino)propoxy]-N-{2-oxo-2-[(2Z)-2-(2-oxo-1,2-dihydro-3H-pyrrolo[3,2-c]pyridin-3-ylidene)hydrazino]ethyl}benzenesulfonamide] | 78.1 |
| COc1ccc(N(CC(=O)N2Cc3ccccc3CC2CC(N)=O)S(=O)(=O)c2ccc(OC)c(OC)c2)cc1 (centres unmarked) [Example 82, 2-[2-({[(3,4-Dimethoxyphenyl)sulfonyl]-4-methoxyanilino}acetyl)-1,2,3,4-tetrahydro-3-isoquinolinyl]acetamide] | 465 |
| CCOc1ccc(S(=O)(=O)N(CC(=O)N2Cc3ccccc3CC2CC(N)=O)c2ccc(C)cc2)cc1 (centres unmarked) [Example 89, 2-[2-({[(4-Ethoxyphenyl)sulfonyl]-4-methylanilino}acetyl)-1,2,3,4-tetrahydro-3-isoguinolinyl]acetamide] | 498 |
| CCOc1ccc(S(=O)(=O)N(CC(=O)N2Cc3ccccc3CC2C(N)=O)c2ccc(OC)cc2)cc1 (centres unmarked) [Example 91, 2-({[(4-Ethoxyphenyl)sulfonyl]-4-methoxyanilino}acetyl)-1.2,3,4-tetrahydro-3-isoquinolinecarboxamide] | 316 |
| Cc1ccc(N(CC(=O)N2CCc3ccccc3C2)S(=O)(=O)c2ccccc2)cc1 [N-[2-(3,4-Dihydro-1H-isoquinolin-2-yl)-2-oxo-ethyl]-N-p-tolyl-benzenesulfonamide] | 472 |
| N-(4-chlorophenyl)-4-ethoxy-N-{2-[(2E)-2-(2-hydroxybenzylidene)hydrazino]-2-oxoethyl}benzenesulfonamide [Example 38] | 14.8 |
